Source: patent US20230038480A1, “SYSTEM FOR PRODUCITON OF HIGH YIELD OF RECOMBINANT PROTEINS” (UNIVERSITY OF MARYLAND, COLLEGE PARK, priority 2021, published 2023)

Tests used:
[1] = system: OxyR / PoxyS promoter
[2] = system: E. coli
Method: To visualize electrode-immobilized bacteria, cells were fluorescently stained using a Live/Dead Baclight Bacterial Viability Kit (Molecular Probes). Syto9 and propidium iodide (PI), were used alone or in combination. In each case, the reagents were diluted between 667 and 1000-fold in PBS, then applied to the cell-covered surfaces and incubated in the dark for 45 min, undisturbed, to stain immobilized cells. The, chips were the rinsed and stored in PBS. […] To quantify viability of cells bound to electrode chips, Syto9 and PI were applied in combination, followed by the fixative solution, with PBS rinsing in between steps. In this case, both green and red fluorescence images were captured. […] The fluorescence images were converted to 8-bit, consistently thresholded, and the cell areas were calculated using ImageJ (NIH). […] After a PBS rinse, cell fluorescence was read on the flow cytometer or imaged by the fluorescence microscope.
To quantify cell growth in the presence of peroxide, E. coli T7Express cells with the pOxyRS-sfGFP-laa and pBla-GBP3-AIDA plasmids were cultured overnight as described above. […] A Bioscreen C machine (Growth Curves USA) was set up at 37° C., high shaking, with 400 μl per well, and recorded OD600 measurements every 15 minutes, using a Growth Rates program to calculate lag and doubling time. […]

[3] = system: E. coli pAHL-GMCSF; assay: AHL-induced porin formation and release of dsRedExpressII from E. coli pAHL-GMCSF; format: cell-based, Escherichia coli; conditions: about
Method: Protein secretion analysis. The target proteins DsRedExpress2 and GMCSF were analyzed. The supernatants of sample aliquots were recovered after centrifugation (6000 g, 2 min) to separate bacteria and subdivided fluorescence analysis (stored chilled) or immunoassaying (stored frozen). The relative fluorescence intensity of samples was measured using a BioTek Synergy platereader to determine DsRedExpress2 levels; additional quantification to correlate fluorescence to protein concentration was performed using a Bioanalyzer 2100 (Agilent Technologies, Santa Clara, Calif.). The His-tagged GMCSF peptide was quantified using a His Tag ELISA Detection Kit (GenScript) according to the provided protocol and 5-10 fold dilutions of frozen samples.

OO [peroxide, hydrogen peroxide]
induction threshold required to achieve saturated protein expression [1]: 25 µM | peroxide tolerated with negligible effect on cell viability [2]: up to 100 μM | benign induction range ([2]; in agreement with previous reports): 0 to 100 µM

CCCCCCCCCC(=O)CC(=O)N[C@H]1CCOC1=O [AHL, N-3-oxo-dodecanoyl-L-Homoserine lactone]
inducer concentration in solution [3]: 100-500 nM of AHL
